Results taken from ChEMBL document CHEMBL5303573, “Mapping human microbiome drug metabolism by gut bacteria and their genes” (Nature, 2019).

Columns and labels:
[1] = The drug is tested on Bifidobacterium ruminantium strain: fecal isolate for biotransformation. The drug concentrations were measured before and after a 12-h incubation by liquid-chromatography-coupled mass spectrometry (LC–MS); conditions: 2 µM
[2] = The drug is tested on Collinsella aerofaciens strain: ATCC25986 for biotransformation. The drug concentrations were measured before and after a 12-h incubation by liquid-chromatography-coupled mass spectrometry (LC–MS); conditions: 2 µM
[3] = The drug is tested on Collinsella intestinalis strain: DSM13280 for biotransformation. The drug concentrations were measured before and after a 12-h incubation by liquid-chromatography-coupled mass spectrometry (LC–MS); conditions: 2 µM
[4] = The drug is tested on Bacteroides cellulosilyticus strain: DSM14838 for biotransformation. The drug concentrations were measured before and after a 12-h incubation by liquid-chromatography-coupled mass spectrometry (LC–MS); conditions: 2 µM
[5] = The drug is tested on Bacteroides coprophilus strain: DSM18228 for biotransformation. The drug concentrations were measured before and after a 12-h incubation by liquid-chromatography-coupled mass spectrometry (LC–MS); conditions: 2 µM
[6] = The drug is tested on Bacteroides fragilis strain: ATCC43859 for biotransformation. The drug concentrations were measured before and after a 12-h incubation by liquid-chromatography-coupled mass spectrometry (LC–MS); conditions: 2 µM
[7] = The drug is tested on Bacteroides pectinophilus strain: ATCC43243 for biotransformation. The drug concentrations were measured before and after a 12-h incubation by liquid-chromatography-coupled mass spectrometry (LC–MS); conditions: 2 µM
[8] = The drug is tested on Bacteroides uniformis strain: ATCC8492 for biotransformation. The drug concentrations were measured before and after a 12-h incubation by liquid-chromatography-coupled mass spectrometry (LC–MS); conditions: 2 µM
[9] = The drug is tested on Bacteroides vulgatus strain: ATCC8482 for biotransformation. The drug concentrations were measured before and after a 12-h incubation by liquid-chromatography-coupled mass spectrometry (LC–MS); conditions: phocaeicola vulgatus, 2 µM
[10] = The drug is tested on Bacteroides sp. WH2 strain: WH2 for biotransformation. The drug concentrations were measured before and after a 12-h incubation by liquid-chromatography-coupled mass spectrometry (LC–MS); conditions: bacteroides sp. wh2, 12 h, 2 µM
[11] = The drug is tested on Bacteroides xylanisolvens strain: DSM18836 for biotransformation. The drug concentrations were measured before and after a 12-h incubation by liquid-chromatography-coupled mass spectrometry (LC–MS); conditions: 2 µM
[12] = The drug is tested on Anaerococcus hydrogenalis strain: DSM7454 for biotransformation. The drug concentrations were measured before and after a 12-h incubation by liquid-chromatography-coupled mass spectrometry (LC–MS); conditions: 2 µM
[13] = The drug is tested on Anaerotruncus colihominis strain: DSM17241 for biotransformation. The drug concentrations were measured before and after a 12-h incubation by liquid-chromatography-coupled mass spectrometry (LC–MS); conditions: 2 µM
[14] = The drug is tested on Blautia luti strain: DSM14534 for biotransformation. The drug concentrations were measured before and after a 12-h incubation by liquid-chromatography-coupled mass spectrometry (LC–MS); type: ADME; set-up: dose 2 uM, timepoint 0 vs 12 hours; conditions: 2 µM
[15] = The drug is tested on Clostridium ramosum strain: DSM1402 for biotransformation. The drug concentrations were measured before and after a 12-h incubation by liquid-chromatography-coupled mass spectrometry (LC–MS); conditions: thomasclavelia ramosa, 2 µM
[16] = The drug is tested on Clostridium scindens strain: ATCC35704 for biotransformation. The drug concentrations were measured before and after a 12-h incubation by liquid-chromatography-coupled mass spectrometry (LC–MS); conditions: 2 µM
[17] = The drug is tested on Clostridium sporogenes strain: ATCC15579 for biotransformation. The drug concentrations were measured before and after a 12-h incubation by liquid-chromatography-coupled mass spectrometry (LC–MS); conditions: 2 µM
[18] = The drug is tested on Clostridium symbiosum strain: ATCC14940 for biotransformation. The drug concentrations were measured before and after a 12-h incubation by liquid-chromatography-coupled mass spectrometry (LC–MS); conditions: 2 µM
[19] = The drug is tested on Coprococcus comes strain: ATCC27758 for biotransformation. The drug concentrations were measured before and after a 12-h incubation by liquid-chromatography-coupled mass spectrometry (LC–MS); type: ADME; set-up: dose 2 uM, timepoint 0 vs 12 hours; conditions: 2 µM
[20] = The drug is tested on Dorea formicigenerans strain: ATCC27755 for biotransformation. The drug concentrations were measured before and after a 12-h incubation by liquid-chromatography-coupled mass spectrometry (LC–MS); conditions: 2 µM
[21] = The drug is tested on Enterococcus faecalis strain: V583 for biotransformation. The drug concentrations were measured before and after a 12-h incubation by liquid-chromatography-coupled mass spectrometry (LC–MS); conditions: 2 µM
[22] = The drug is tested on Eubacterium hallii strain: DSM3353 for biotransformation. The drug concentrations were measured before and after a 12-h incubation by liquid-chromatography-coupled mass spectrometry (LC–MS); conditions: anaerobutyricum hallii, 2 µM
[23] = The drug is tested on Eubacterium rectale strain: ATCC33656 for biotransformation. The drug concentrations were measured before and after a 12-h incubation by liquid-chromatography-coupled mass spectrometry (LC–MS); conditions: agathobacter rectalis, 2 µM
[24] = The drug is tested on Eubacterium ventriosum strain: ATCC27560 for biotransformation. The drug concentrations were measured before and after a 12-h incubation by liquid-chromatography-coupled mass spectrometry (LC–MS); type: ADME; set-up: dose 2 uM, timepoint 0 vs 12 hours; conditions: 2 µM
[25] = The drug is tested on Ruminococcus gnavus strain: ATCC29149 for biotransformation. The drug concentrations were measured before and after a 12-h incubation by liquid-chromatography-coupled mass spectrometry (LC–MS); conditions: mediterraneibacter gnavus, 2 µM
[26] = The drug is tested on Ruminococcus lactaris strain: ATCC29176 for biotransformation. The drug concentrations were measured before and after a 12-h incubation by liquid-chromatography-coupled mass spectrometry (LC–MS); conditions: 2 µM
[27] = The drug is tested on Ruminococcus torques strain: ATCC27756 for biotransformation. The drug concentrations were measured before and after a 12-h incubation by liquid-chromatography-coupled mass spectrometry (LC–MS); type: ADME; set-up: dose 2 uM, timepoint 0 vs 12 hours; conditions: 2 µM
[28] = The drug is tested on Subdoligranulum variabile strain: DSM15176 for biotransformation. The drug concentrations were measured before and after a 12-h incubation by liquid-chromatography-coupled mass spectrometry (LC–MS); conditions: 2 µM
[29] = The drug is tested on Edwardsiella tarda strain: ATCC23685 for biotransformation. The drug concentrations were measured before and after a 12-h incubation by liquid-chromatography-coupled mass spectrometry (LC–MS); conditions: 2 µM
[30] = The drug is tested on Providencia stuartii strain: ATCC25827 for biotransformation. The drug concentrations were measured before and after a 12-h incubation by liquid-chromatography-coupled mass spectrometry (LC–MS); conditions: 2 µM
[31] = bifidobacterium adolescentis, 12 h, 2 µM
Description: The drug is tested on Bifidobacterium adolescentis strain: ATCC 15703 for biotransformation. The drug concentrations were measured before and after a 12-h incubation by liquid-chromatography-coupled mass spectrometry (LC–MS)

[32] = bacteroides eggerthii, 12 h, 2 µM
Description: The drug is tested on Bacteroides eggerthii strain: DSM20697 for biotransformation. The drug concentrations were measured before and after a 12-h incubation by liquid-chromatography-coupled mass spectrometry (LC–MS)

[33] = bacteroides fragilis, 12 h, 2 µM
Description: The drug is tested on Bacteroides fragilis strain: NCTC 9343 for biotransformation. The drug concentrations were measured before and after a 12-h incubation by liquid-chromatography-coupled mass spectrometry (LC–MS)

[34] = bacteroides intestinalis, 12 h, 2 µM
Description: The drug is tested on Bacteroides intestinalis strain: DSM17393 for biotransformation. The drug concentrations were measured before and after a 12-h incubation by liquid-chromatography-coupled mass spectrometry (LC–MS)

[35] = parabacteroides johnsonii, 12 h, 2 µM
Description: The drug is tested on Parabacteroides johnsonii strain: DSM18315 for biotransformation. The drug concentrations were measured before and after a 12-h incubation by liquid-chromatography-coupled mass spectrometry (LC–MS)

[36] = segatella copri, 12 h, 2 µM
Description: The drug is tested on Prevotella copri strain: DSM18205 for biotransformation. The drug concentrations were measured before and after a 12-h incubation by liquid-chromatography-coupled mass spectrometry (LC–MS)

[37] = anaerostipes sp., 12 h, 2 µM
Description: The drug is tested on Anaerostipes sp. strain: fecal isolate for biotransformation. The drug concentrations were measured before and after a 12-h incubation by liquid-chromatography-coupled mass spectrometry (LC–MS)

[38] = victivallis vadensis, 12 h, 2 µM
Description: The drug is tested on Victivallis vadensis strain: ATCC BAA-548 for biotransformation. The drug concentrations were measured before and after a 12-h incubation by liquid-chromatography-coupled mass spectrometry (LC–MS)

[39] = akkermansia muciniphila, 12 h, 2 µM
Description: The drug is tested on Akkermansia muciniphila strain: ATCC BAA-835 for biotransformation. The drug concentrations were measured before and after a 12-h incubation by liquid-chromatography-coupled mass spectrometry (LC–MS)

For `CCOC(=O)[C@H](CCc1ccccc1)N[C@@H](C)C(=O)N1[C@H](C(=O)O)C[C@@H]2CCC[C@@H]21`, the “Bacterial Biotransformation” value [1] was “Compound NOT metabolized”, the “Bacterial Biotransformation” value [2] was “Compound NOT metabolized” and the “Bacterial Biotransformation” value [3] was “Compound NOT metabolized”. The “Bacterial Biotransformation” value [4] was “Compound metabolized”, the “Bacterial Biotransformation” value [5] was “Compound NOT metabolized” and the “Bacterial Biotransformation” value [6] was “Compound metabolized”. The “Bacterial Biotransformation” value [7] was “Compound NOT metabolized”, the “Bacterial Biotransformation” value [8] was “Compound metabolized” and the “Bacterial Biotransformation” value [9] was “Compound metabolized”. The “Bacterial Biotransformation” value [10] was “Compound NOT metabolized”, the “Bacterial Biotransformation” value [11] was “Compound metabolized” and the “Bacterial Biotransformation” value [12] was “Compound NOT metabolized”. For the same molecule, the “Bacterial Biotransformation” value [13] was “Compound NOT metabolized”, the “Bacterial Biotransformation” value [14] was “Compound NOT metabolized” and the “Bacterial Biotransformation” value [15] was “Compound NOT metabolized”. For the same molecule, the “Bacterial Biotransformation” value [16] was “Compound NOT metabolized”, the “Bacterial Biotransformation” value [17] was “Compound NOT metabolized” and the “Bacterial Biotransformation” value [18] was “Compound NOT metabolized”. The “Bacterial Biotransformation” value [19] was “Compound NOT metabolized”, the “Bacterial Biotransformation” value [20] was “Compound NOT metabolized” and the “Bacterial Biotransformation” value [21] was “Compound NOT metabolized”. For the same molecule, the “Bacterial Biotransformation” value [22] was “Compound NOT metabolized”, the “Bacterial Biotransformation” value [23] was “Compound NOT metabolized” and the “Bacterial Biotransformation” value [24] was “Compound NOT metabolized”. The “Bacterial Biotransformation” value [25] was “Compound NOT metabolized”, the “Bacterial Biotransformation” value [26] was “Compound NOT metabolized” and the “Bacterial Biotransformation” value [27] was “Compound NOT metabolized”. For the same molecule, the “Bacterial Biotransformation” value [28] was “Compound NOT metabolized”, the “Bacterial Biotransformation” value [29] was “Compound NOT metabolized” and the “Bacterial Biotransformation” value [30] was “Compound NOT metabolized”. The “Bacterial Biotransformation” value [31] was “Compound NOT metabolized”, the “Bacterial Biotransformation” value [32] was “Compound NOT metabolized” and the “Bacterial Biotransformation” value [33] was “Compound NOT metabolized”. For the same molecule, the “Bacterial Biotransformation” value [34] was “Compound NOT metabolized”, the “Bacterial Biotransformation” value [35] was “Compound NOT metabolized” and the “Bacterial Biotransformation” value [36] was “Compound NOT metabolized”. For the same molecule, the “Bacterial Biotransformation” value [37] was “Compound NOT metabolized”, the “Bacterial Biotransformation” value [38] was “Compound NOT metabolized” and the “Bacterial Biotransformation” value [39] was “Compound NOT metabolized”.
